In article PMC7465040, “Cytotoxic and Anti-Plasmodial Activities of Stephania dielsiana Y.C. Wu Extracts and the Isolated Compounds” (Molecules, 2020):
Read-outs that look alike come from different tables or passages of the source.

Key:
[1] = system: HeLa; test: SRB cell proliferation assay, HeLa; type: cell-based, human; details: for IC50: Homo sapiens, HeLa; for Selectivity index (SI) 184B5 versus HeLa / Selectivity index (SI) MCF10A versus HeLa: Table 2B; for Selectivity index (SI) 184B5 versus HeLa: non-cancer 184B5 vs cancer HeLa; for Selectivity index (SI) MCF10A versus HeLa: non-cancer MCF10A vs cancer HeLa
Method: (§1) In vitro anticancer study: The in vitro anti-proliferative tests were carried out as described previously, using aliquots of the cell lines used therein. Briefly, HeLa, MDA-MB-231 and MDA-MB-468, MCF7, and 184B5 and MCF 10A cell lines were purchased from ATCC. The identity of the cell lines presented in this study were verified by short tandem repeat profiling by Genetica DNA Laboratories (www.celllineauthentication.com) (April 8, 2015). MCF10A was grown in DMEM F12 medium supplemented with 0.02 μg/mL epidermal growth factor, 10% FBS, 10 μg/mL insulin and […] hydrocortisone. MDA-MB-468 were grown in DMEM supplemented with 10% FBS and antibiotics cocktail (100 μg/mL streptomycin, 100 units/mL penicillin and 250 ng/mL amphotericin B). SRB cell proliferation assays were carried out as previously described, with some minor modifications. The concentration range for all tested cell lines were from 100–0.39 μg/mL for extracts and 100–0.39 μM for pure compounds. […] All experiments were carried out at least twice.

[2] = system: MDA-MB-231; test: SRB cell proliferation assay, MDA-MB-231; type: cell-based, human; details: for IC50: Homo sapiens; for Selectivity index (SI) 184B5 versus MDA-MB-231 / Selectivity index (SI) MCF10A versus MDA-MB-231: Table 2B; for Selectivity index (SI) 184B5 versus MDA-MB-231: non-cancer 184B5 vs cancer MDA-MB-231; for Selectivity index (SI) MCF10A versus MDA-MB-231: non-cancer MCF10A vs cancer MDA-MB-231
Method: as §1

[3] = system: MDA-MB-468; test: SRB cell proliferation assay, MDA-MB-468; type: cell-based, human; details: for IC50: Homo sapiens; for Selectivity index (SI) 184B5 versus MDA-MB-468 / Selectivity index (SI) MCF10A versus MDA-MB-468: Table 2B; for Selectivity index (SI) 184B5 versus MDA-MB-468: non-cancer 184B5 vs cancer MDA-MB-468; for Selectivity index (SI) MCF10A versus MDA-MB-468: non-cancer MCF10A vs cancer MDA-MB-468
Method: as §1

[4] = system: MCF7; test: SRB cell proliferation assay, MCF7; type: cell-based, human; details: for IC50: Homo sapiens; for Selectivity index (SI) 184B5 versus MCF7 / Selectivity index (SI) MCF10A versus MCF7: Table 2B; for Selectivity index (SI) 184B5 versus MCF7: non-cancer 184B5 vs cancer MCF7; for Selectivity index (SI) MCF10A versus MCF7: non-cancer MCF10A vs cancer MCF7
Method: as §1

[5] = system: 184B5; test: SRB cell proliferation assay, 184B5 non-cancer cells; type: cell-based, human; details: Homo sapiens
Method: as §1

[6] = system: MCF 10A; test: SRB cell proliferation assay, MCF10A non-cancer cells; type: cell-based; details: Homo sapiens
Method: as §1

[7] = system: chloroquine-susceptible 3D7 P. falciparum strain; test: In vitro anti-plasmodial assay (HRP2 ELISA), 3D7; type: cell-based, Plasmodium falciparum; details: for IC50: Plasmodium falciparum, 3D7, 72 h, read-out: IC50 (μM ± SD) 3D7; for SI 3D7 184B5 / SI 3D7 MCF10A: Table 3; for SI 3D7 184B5: selectivity index between 184B5 and parasites 3D7; for SI 3D7 MCF10A: selectivity index between MCF10A and parasites 3D7
Method: (§2) Parasites were grown in A-positive human blood (Etablissement Français du Sang, Marseille, France) under controlled atmospheric conditions that consisted of 10% O2, 5% CO2, and 85% N2 at 37 °C with a humidity of 95%.
(§3) In vitro anti-plasmodial assay: The two P. falciparum strains 3D7 and W2 were synchronized twice with sorbitol before use. The clonality of these strains was verified both in our laboratory and in an independent laboratory from the Worldwide Anti-malarial Resistance Network (WWARN) by PCR genotyping of the polymorphic genetic markers msp1 and msp2 and microsatellite loci. The compounds were re-suspended in methanol or DMSO 5% (v/v) and then diluted in methanol to obtain final concentrations ranging from 0.008 to 500 μg/mL (final concentration of 0.5% of methanol or DMSO). […] The plates were incubated for 72 h at 37 °C in controlled atmospheric conditions 5% CO2, 10% O2, and […]. After thawing the plates, haemolysed cultures were homogenized by vortexing the plates. Both the success of the drug susceptibility assay and the appropriate volume of haemolysed culture to use for each assay were determined for each clinical isolate during a preliminary HRP2 ELISA. Both the pre-test and subsequent ELISA assays were performed using a commercial kit (Malaria Ag Celisa, ref KM2159, Cellabs PTY LTD, Brookvale, Australia) according to the manufacturer’s recommendation. The optical density (OD) of each sample was measured with a spectrophotometer (Safire 2, Tecan, Lyon, France). […] The anti-plasmodial in vitro assay was performed five times for each product. The IC50 values represented the mean value calculated from five experiments. According to Hout, a selectivity index (SI) was based on the ratio between anti-parasitic and cytotoxic activities. In the case of our study, a SI was calculated between non-tumorigenic cell line 184B5 and parasites 3D7 or W2 and/or MCF10A and these two parasites.

[8] = system: chloroquine-resistant W2 P. falciparum strain; test: In vitro anti-plasmodial assay (HRP2 ELISA), W2; type: cell-based, Plasmodium falciparum; details: for IC50: Plasmodium falciparum, W2, 72 h, read-out: IC50 (μM ± SD) W2; for SI W2 184B5 / SI W2 MCF10A: Table 3; for SI W2 184B5: selectivity index between 184B5 and parasites W2; for SI W2 MCF10A: selectivity index between MCF10A and parasites W2
Method: as §2, §3

[9] = system: HeLa, MDA-MB231, MDA-MB-468, MCF7, 184B5 and MCF10A cell lines; test: SRB cell proliferation assay, whole panel of cell lines; type: cell-based, human; details: Homo sapiens, read-out: IC50 values, range over the cell lines examined
Method: as §1

[10] = system: Plasmodium falciparum 3D7 and W2 strains; test: In vitro anti-plasmodial assay, both strains; type: cell-based
Method: as §2, §3

[11] = 72 h, read-out: IC50 (μM ± SD) HeLa
[12] = MDA-MB-231, 72 h, read-out: IC50 (μM ± SD) MDA-MB-231
[13] = MDA-MB-468, 72 h, read-out: IC50 (μM ± SD) MDA-MB-468
[14] = MCF7, 72 h, read-out: IC50 (μM ± SD) MCF7
[15] = 184B5, 72 h, read-out: IC50 (μM ± SD) 184B5
[16] = 184B5, read-out: IC50 (μM ± SD) 184B5
[17] = 72 h, read-out: IC50 (μM ± SD) MCF 10A
[18] = read-out: IC50 (μM ± SD) MCF 10A
[19] = 72 h, HRP2 ELISA, mean of five experiments

Row | SMILES | IC50 [1, 11] [µM] | IC50 [2, 12] [µM] | IC50 [3, 13] [µM] | IC50 [4, 14] [µM] | IC50 [5, 15] [µM] | IC50 [5, 16] [µM] | IC50 [6, 17] [µM] | IC50 [6, 18] [µM] | IC50 [7] [µM] | IC50 [8] [µM] | Selectivity index (SI) 184B5 versus HeLa [1] | Selectivity index (SI) MCF10A versus HeLa [1] | Selectivity index (SI) 184B5 versus MDA-MB-231 [2] | Selectivity index (SI) MCF10A versus MDA-MB-231 [2] | Selectivity index (SI) 184B5 versus MDA-MB-468 [3] | Selectivity index (SI) MCF10A versus MDA-MB-468 [3] | Selectivity index (SI) 184B5 versus MCF7 [4] | Selectivity index (SI) MCF10A versus MCF7 [4] | SI 3D7 184B5 [7] | SI W2 184B5 [8] | further results
1 | CCN(CC)CCCC(C)Nc1ccnc2cc(Cl)ccc12 (centres unmarked) [Chloroquine, reference compound] | 29.8 ± 0.7 | 28.9 ± 0.4 | 33.2 ± 0.4 | > 50 | > 50 | > 50 | 40.5 ± 9.8 | 40.5 ± 9.8 | 0.021 ± 0.005 | 0.38 ± 0.03 | – | – | – | – | – | – | – | – | – | – | –
2 | COc1ccc2c(c1OC)CC1c3c(cc4c(c3-2)OCO4)CCN1C (centres unmarked) [Crebanine 4, crebanine] | 48.1 ± 2.38 | 38.9 ± 7.1 | 17.8 ± 4.63 | 30.5 ± 4.89 | 47.4 ± 2.83 | 47.4 ± 2.83 | 47.2 ± 4.37 | 47.2 ± 4.37 | 1.56 ± 0.22 | 2.16 ± 0.38 | 0.99 | 0.98 | 1.22 | 1.21 | 2.66 | 2.65 | 1.56 | 1.55 | 30.41 | 21.96 | SI 3D7 MCF10A [7]: 30.23; Selective index SI on 3D7 strain ([7]; vs 184B5 and MCF10A): > 20; SI W2 MCF10A [8]: 21.83; IC50 [9]: 17 to 48 µM; Anti-plasmodial activity against both 3D7 and W2 (in words) [10]: strong activity
3 | C[C@H]1[C@@H](O)O[C@@H]2O[C@@]3(C)CC[C@H]4[C@H](C)CC[C@@H]1[C@@]24OO3 [Dihydroartemisinin, reference compound] | – | – | – | – | – | – | – | – | – | – | – | – | – | – | – | – | – | – | – | – | IC50 [7, 19]: 0.002 ± 0.001 µM; IC50 [8, 19]: 0.002 ± 0.001 µM
4 | OC(c1cc(C(F)(F)F)nc2c(C(F)(F)F)cccc12)C1CCCCN1 (centres unmarked) [Mefloquine, reference compound] | – | – | – | – | – | – | – | – | – | – | – | – | – | – | – | – | – | – | 207.6 | 490.9 | IC50 ([5]; 184B5, Table 3, non-cancer cell line, read-out: IC50 (μM ± SD) 184B5): 10.8 ± 0.75 µM; IC50 [7, 19]: 0.052 ± 0.009 µM; IC50 [8, 19]: 0.022 ± 0.006 µM
5 | CC(=O)O[C@H]1C(=O)[C@@]2(C)[C@H]([C@H](OC(=O)c3ccccc3)[C@]3(O)C[C@H](OC(=O)[C@H](O)[C@@H](NC(=O)c4ccccc4)c4ccccc4)C(C)=C1C3(C)C)[C@]1(OC(C)=O)CO[C@@H]1C[C@@H]2O [Paclitaxel, reference compound] | – | – | – | – | – | – | – | – | – | – | 0.7 | 0.44 | 1.67 | 1.10 | 0.67 | 0.42 | 0.98 | 0.62 | – | – | IC50 ([1]; Table 2A, paclitaxel in nM (footnote a), read-out: IC50 HeLa): 0.00381 ± 0.00042 µM; IC50 ([2]; MDA-MB-231, Table 2A, paclitaxel in nM (footnote a), read-out: IC50 MDA-MB-231): 0.00158 ± 0.00075 µM; IC50 ([3]; MDA-MB-468, Table 2A, paclitaxel in nM (footnote a), read-out: IC50 MDA-MB-468): 0.00396 ± 0.00032 µM; IC50 ([4]; MCF7, Table 2A, paclitaxel in nM (footnote a), read-out: IC50 MCF7): 0.00271 ± 0.00111 µM; IC50 ([5]; 184B5, Table 2A, paclitaxel in nM (footnote a), read-out: IC50 184B5): 0.00265 ± 0.00191 µM; IC50 ([6]; Table 2A, paclitaxel in nM (footnote a), read-out: IC50 MCF 10A): 0.00167 ± 0.00021 µM
6 | COc1cccc2c1C[C@@H]1c3c(cc4c(c3-2)OCO4)CCN1C [Stephanine 3, stephanine] | 3.33 ± 0.23 | 5.66 ± 0.16 | 7.14 ± 2.11 | 6.49 ± 0.43 | 6.25 ± 0.14 | 6.25 ± 0.14 | 7.19 ± 0.33 | 7.19 ± 0.33 | 0.69 ± 0.15 | 1.32 ± 0.38 | 1.88 | 2.16 | 1.10 | 1.27 | 0.88 | 1.01 | 0.96 | 1.11 | 9.06 | 4.73 | Anti-plasmodial activity on 3D7 (in words) [7]: very effective; SI 3D7 MCF10A [7]: 10.42; Anti-plasmodial activity on W2 (in words) [8]: not effective; SI W2 MCF10A [8]: 5.45
